Measured values: US20220257775A1 (GLYCOMIMETICS, INC., priority 2019, published 2022)
“Also recorded” adds a separate entry of the source.

Tests used:
[1] = test system: TNFα-treated nude mice infused with human sickle RBCs; test: Sickle cell vaso-occlusion, intravital microscopy and adhesion in nude mouse model; type: in vivo, Nude (nu−/nu−) mice
Method: In vivo treatment: Mice were divided into 3 groups. All mice were first injected I.P. with 500 ng TNFα to induce inflammation, activate the endothelium, and allow adhesion of murine leukocytes. After 2 hours, and once the endothelium is activated and murine leukocytes have already adhered, mice were infused with 200 μl of DIL (rhodamine)-labeled human sickle RBCs at 50% hematocrit (less than 10% murine blood volume assuming that blood volume for a 20 g weight mouse is 1.5 ml). We injected I.V. the three animal groups with the first dose of either Compound 45 at 20 μg/kg or 40 μg/kg, or saline (10 mL/kg) as vehicle immediately after infusion of human RBCs. The second dose was given 30 minutes later.
Window chamber surgery: Surgery was performed before TNFα administration. General anesthesia was achieved by exposing nude mice to isoflurane. A double-sided titanium frame window chamber was surgically implanted into the dorsal skin fold under sterile conditions using a laminar flow hood. Surgery involved carefully removing the epidermal and dermal layers of one side of a dorsal skin fold, exposing the blood vessels of the subcutaneous tissue adjacent to the striated muscles of the opposing skin fold, and then securing the two sides of the chamber to the skin using stainless steel screws and sutures. A glass window was placed in the chamber to cover the exposed tissue and secured with a snap ring.
Animal treatments, and fluorescence intravital microscopy: Anesthetized nude mice were first injected with 500 ng TNFα. After two hours, mice were infused with 200 μl DIL (rhodamine)-labeled human sickle RBCs at 50% hematocrit DIL through the dorsal tail vein.
Immediately after human RBC injection, nude mice were then injected I.V. with the first dose of either Compound 45 at 20 μg/kg (n=4) or 40 μg/kg (n=3), or saline (10 mL/kg) as vehicle (n=5). Videos were recorded for 30 minutes at different locations within the dorsal skin-fold window chamber to accurately determine the effects of Compound 45 on human sickle cell adhesion to the vascular endothelium and adherent murine leukocytes, and vaso-occlusion in the nude mice. Thirty minutes later, the second dose of either Compound 45 at 20 μg/kg (n=4) or 40 μg/kg (n=3), or vehicle (n=5) was injected I.V., and intravital microscopy measurements of blood cell flow dynamics in post-capillary venules and arterioles were resumed for another 30 minutes on anesthetized nude mice. Videos were again recorded at different locations within the dorsal skin-fold window chamber to accurately determine the effects of the second dose of Compound 45 on blood cell adhesion to the vascular endothelium, and vaso-occlusion. Videos were produced using 10× and 20× magnifications.
Cell adhesion was quantified on still images by measuring the fluorescence intensity [fluorescence unit (FU)] of adherent fluorescence-labeled human sickle cells using ImageJ software downloaded from the NIH website. Blood flow was also determined by counting the number of vessels with normal blood flow, slow blood flow, and no blood flow by frame-by-frame analysis of video replay. The values were averaged among groups of animals (n=5 for vehicle, n=4 for 40 μg/kg total Compound 45, and n=3 for 80 μg/kg total Compound 45) for non-blinded statistical analysis.
(§1) Method of Analysis: Human sickle RBC adhesion is presented as FU, blood flow as % normal blood flow, % slow blood flow and % no blood flow (or occluded vessels), and circulating human sickle RBCs as number of circulating sickle RBCs.

[2] = test system: TNFα-treated HbSS-Townes mice; test: Sickle cell vaso-occlusion, intravital microscopy and adhesion in Townes mouse model; type: in vivo
Method: In vivo treatment: Townes mice were divided into 3 groups. All mice were first injected I.V. with PE-anti-mouse TER-119 antibody (10 μg/g BW) to label RBCs. Thirty minutes later, animals are injected with 500 ng TNFα I.P. to induce vaso-occlusion. After 90 minutes, and after onset of vaso-occlusion, sickle mice were treated I.V. with the first dose of either Compound 45 at 20 μg/kg or 40 μg/kg, or saline (10 mL/kg) as vehicle. The second dose was given 30 minutes later.
Window chamber surgery: For Townes mice experiments, surgery is carried out under sterile conditions with aseptic technique. Since these mice do have hair, it is necessary to shave and use hair removal cream on the back of the anesthetized mouse prior to cleaning the back of the animals, and performing surgery. Experimental studies are performed immediately after surgery, because in our experience, window chambers are not usable a few days after surgery. The skin is very dry, and blood cells cannot be visualized under the microscopy. In addition, sickle mice have been reported to have a mild inflammatory response to the dorsal skin-fold window chamber implantation, evidenced by elevated levels of serum amyloid P component (SAP) 3 days after surgery.
Intravital microscopy: Anesthetized animals with window chambers were placed on the stage of an Axoplan microscope (Carl Zeiss, Thornwood, N.Y.) and temperature maintained at 37° C. using a thermostatically controlled heating pad. […] Microcirculatory events and cell adhesion were simultaneously recorded using a computer connected to a digital video camera C2400 (Hamamatsu Photonics K.K., Japan). Visible venules were examined for each set of conditions. Arterioles were distinguished from venules based on: 1) observation of divergent flow as opposed to convergent flow; 2) birefringent appearance of vessel walls using transillumination, which is characteristic of arteriolar vascular smooth muscle; and 3) relatively straight vessel trajectory without evidence of tortuosity.
Data Analysis and Statistics were conducted as described above for the nude mouse model.

[3] = test system: TNFα-treated nude mice infused with human sickle RBCs; test: Flow cytometry analysis of circulating human sickle RBCs in nude mice; type: in vivo, Nude (nu−/nu−) mice
Method: Flow cytometry analysis of circulating human sickle RBCs: Following intravital microscopy, blood samples were collected from nude mice treated with vehicle (n=3), 40 μg/kg total Compound 45 (n=3), and 80 μg/kg total Compound 45 (n=2), through cardiac puncture into EDTA tubes to determine the number of circulating human sickle RBCs by flow cytometry.
as §1

[4] = biological target: T1, recombinant human E-selectin/CD63E Fc Chimera (Homo sapiens, UniProt P16581); test: E-Selectin Activity - Analysis by SPR; type: binding; details: Biacore X100, E-selectin captured on anti-human IgG (Fc) chip
T1 construct: Fc (human IgG Fc fusion partner); purchased R & D systems
Method: Surface Plasmon Resonance (SPR) measurements were performed on a Biacore X100 instrument (GE Healthcare). A CM5 sensor chip (GE Healthcare) was used for the interaction between E-selectin and GMI compound. Anti-human IgG (Fc) antibody (GE Healthcare) was immobilized onto the chip by amine coupling according to the manufacturer's instructions. In brief, after a 7-min injection (flow rate of 5 μl/min) of 1:1 mixture of N-ethyl-N′-(3-dimethylaminopropyl) carbodiimide hydrochloride and N-hydroxysuccinimide, anti-human IgG (Fc) antibody (25 μg/ml in 10 mM sodium acetate buffer, pH 5.0) was injected using a 6-min injection at 5 μl/min. Remaining activated groups were blocked by injecting 1 M ethanolamine/HCl, pH 8.5. The recombinant human E-selectin/CD63E Fc Chimera (50 μg/ml) (R & D systems) was injected into the experimental cell until 6000-7000 RU was captured onto the antibody surface. No recombinant human E-selectin/CD63E was injected into the control cell. Increasing concentrations of GMI compound samples were injected at 30 μl/min into both flow cells and all sensorgrams were recorded against the control. Regeneration of the anti-human IgG (Fc) surface was achieved by injecting 3M magnesium chloride, followed by 50 mM sodium hydroxide. Data were analyzed using Biacore X100 evaluation/BIA evaluation 4.1.1 software (GE Healthcare) and Graphad prism 6 software.

[5] = after second dose of 20 μg/kg I.V.
[6] = after the first dose of 40 μg/kg I.V.
[7] = after two doses of 40 μg/kg I.V.

T1 sequence (P16581 with tags, fused parts or gaps limits assumed): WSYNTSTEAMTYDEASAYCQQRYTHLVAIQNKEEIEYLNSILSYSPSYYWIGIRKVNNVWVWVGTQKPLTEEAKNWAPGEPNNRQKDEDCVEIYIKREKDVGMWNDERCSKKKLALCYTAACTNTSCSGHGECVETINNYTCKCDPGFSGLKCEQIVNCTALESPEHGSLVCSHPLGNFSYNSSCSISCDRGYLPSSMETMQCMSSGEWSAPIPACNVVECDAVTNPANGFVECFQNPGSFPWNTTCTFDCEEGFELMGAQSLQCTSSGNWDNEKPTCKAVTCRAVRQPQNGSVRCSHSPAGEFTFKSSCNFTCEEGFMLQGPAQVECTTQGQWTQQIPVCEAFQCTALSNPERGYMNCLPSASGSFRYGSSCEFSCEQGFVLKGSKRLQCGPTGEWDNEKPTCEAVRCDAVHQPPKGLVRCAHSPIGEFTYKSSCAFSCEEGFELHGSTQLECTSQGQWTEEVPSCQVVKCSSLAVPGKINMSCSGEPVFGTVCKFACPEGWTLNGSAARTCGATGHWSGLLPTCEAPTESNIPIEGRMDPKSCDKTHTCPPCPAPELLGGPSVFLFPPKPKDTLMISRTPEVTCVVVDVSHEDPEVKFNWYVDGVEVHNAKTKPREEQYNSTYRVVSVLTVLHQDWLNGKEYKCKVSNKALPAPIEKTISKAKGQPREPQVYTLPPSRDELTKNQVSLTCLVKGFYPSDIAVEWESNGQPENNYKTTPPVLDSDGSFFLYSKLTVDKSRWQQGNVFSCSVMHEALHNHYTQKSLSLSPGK

Compound: CC[C@H]1C[C@@H](C(=O)NCCNC(=O)NCCNC(=O)[C@@H]2C[C@H](CC)[C@@H](O[C@@H]3O[C@@H](C)[C@@H](O)[C@@H](O)[C@@H]3O)[C@H](O[C@@H]3O[C@H](CO)[C@H](O)[C@H](O[C@@H](CC4CCCCC4)C(=O)N4CCC4)[C@H]3NC(C)=O)C2)C[C@@H](O[C@@H]2O[C@H](CO)[C@H](O)[C@H](O[C@@H](CC3CCCCC3)C(=O)N3CCC3)[C@H]2NC(C)=O)[C@@H]1O[C@@H]1O[C@@H](C)[C@@H](O)[C@@H](O)[C@@H]1O [Compound 45]
- percentage of the total occluded vessel segments [1, 5]: 2%
- total venules with slow blood flow [1, 5]: 16%
- human SSRBC adhesion compared to vehicle ([1]; after second dose of 20 μg/kg I.V. (40 μg/kg total), 30 min interval): significantly diminished
- percentage of obstructed total vessels [1, 6]: 2%
- vessels with slow blood flow [1, 6]: 12%
- percentage of obstructed total vessels [1, 7]: 4%
- vessels with slow blood flow [1, 7]: 8%
- blood flow in inflamed vessels ([1]; dose not given): improves blood flow
- human SSRBC adhesion after the inflammatory trigger of vaso-occlusion ([1]; dose not given): reduces human SSRBC adhesion
- human SSRBC adhesion compared to vehicle ([1]; one dose of 20 μg/kg I.V.): failed to reduce SSRBC adhesion
- human SSRBC adhesion ([1]; one dose of 40 μg/kg I.V.): marked anti-SSRBC adhesive activity
- human SSRBC adhesion ([1]; two doses of 40 μg/kg I.V. (80 μg/kg total), 30 min interval): marked anti-SSRBC adhesive activity; also recorded: effective in reducing cell adhesion in venules and vaso-occlusion and restoring blood flow
- SSRBC adhesion after the inflammatory trigger of vaso-occlusion ([2]; dose not given): reduces SSRBC adhesion
- blood flow in inflamed vessels ([2]; dose not given): improves blood flow
- adhesion of the sickle cells ([2]; two 20 μg/kg doses I.V.): significantly diminished
- reduction of the percentage of the total occluded vessel segments ([2]; two 20 μg/kg doses or two 40 μg/kg doses I.V.): 80-90%
- adhesion of the sickle cells ([2]; two 40 μg/kg doses I.V. (80 μg/kg total)): significantly diminished; also recorded: effective in reducing sickle RBCs adhesion in venules and vaso-occlusion and restoring blood flow
- number of circulating human SSRBCs compared to vehicle ([3]; two doses of 20 μg/kg I.V. at 30 min interval): increased significantly
- number of circulating human SSRBCs compared to vehicle ([3]; two doses of 40 μg/kg I.V. at 30 min interval): increased significantly
- Kd [4]: 2.1 nM
